In paper PMC9450471 (Computational Biology and Chemistry, 2022):

Assay: in vitro
Conditions: African green monkey

SMILES	CC50 [µM]
OC[C@H]1O[C@@H](n2cnc3c(N[C@@H]4CCOC4)ncnc32)[C@H](O)[C@@H]1O [Tecadenoson]	> 100
Nc1ncnc2c1ncn2[C@@H]1O[C@H](CO)[C@@H](O)[C@@H]1O [Vidarabine, Arabinosyladenine]	> 100
O=c1[nH]cnc2c([C@@H]3N[C@H](CO)[C@@H](O)[C@H]3O)c[nH]c12 [Forodesine]	> 100
COc1nc(N)nc2c1ncn2[C@@H]1O[C@H](CO)[C@@H](O)[C@@H]1O [Nelarabine]	> 100
CCC(CC)COC(=O)[C@H](C)N[P@](=O)(OC[C@H]1O[C@@](C#N)(c2ccc3c(N)ncnn23)[C@H](O)[C@@H]1O)Oc1ccccc1 [Remdesivir]	> 100
CC(C)Nc1nc2cc(Cl)c(Cl)cc2n1[C@H]1O[C@@H](CO)[C@H](O)[C@@H]1O [Maribavir]	> 100
CC(C)C(=O)OC[C@H]1O[C@@H](n2ccc(NO)nc2=O)[C@H](O)[C@@H]1O [Molnupiravir]	> 100
CC(C)=CCNc1ncnc2c1ncn2[C@@H]1O[C@H](CO)[C@@H](O)[C@H]1O [Riboprine, N ^6-(2-Isopentenyl)adenosine]	> 100
